Test results: US10703733B2, “MCL-1 inhibitors” (Gilead Sciences, Inc., priority 2018, dated 2020)
Read-outs that look alike come from different tables or passages of the source.

Experiments:
[1] = biological target: MCL-1/Bim interaction (recombinant human MCL-1 protein, residues 171-327; biotinylated human Bim peptide, residues 51-76) (Homo sapiens (Human), UniProt Q07820); experiment: MCL-1/Bim Binding AlphaLISA Assay; details: 0.0625 nM 6xHis-Mcl-1 (171-327), 0.0625 nM biotinylated-Bim peptide
MCL-1/Bim interaction (recombinant human MCL-1 protein, residues 171-327; biotinylated human Bim peptide, residues 51-76), sequence (Q07820 171-327): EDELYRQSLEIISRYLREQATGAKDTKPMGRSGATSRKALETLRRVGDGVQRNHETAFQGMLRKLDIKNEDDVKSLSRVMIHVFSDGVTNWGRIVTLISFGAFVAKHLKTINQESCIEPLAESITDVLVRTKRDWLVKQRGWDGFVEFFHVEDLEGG
Method in brief: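 Compounds first sat 1 h with MCL-1 (171-327, 0.0625 nM), followed by 2 h with biotin-Bim 51-76 (0.0625 nM), then sequential 1 h anti-His acceptor and streptavidin donor bead steps; buffer Hepes pH 7.5 with NaCl, Brij 35, DTT, BSA. AlphaScreen signal converted to % inhibition using DMSO (negative) and protein/peptide-free (positive) controls.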

[2] = tested on: SKBR3 cells; experiment: SKBR3 Cell Viability Assay (CellTiter Glo); assay type: cell-based; details: CellTiter Glo luminescence, read-out: MCL-1 CV SKBR3 EC50
Method in brief: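 Viability read as CellTiter Glo luminescence after 72 h of compound exposure at 37° C./5% CO2, using 6,000 SKBR3 cells per well in McCoy 5A with 10% FBS. Percent inhibition scaled between DMSO wells and 10 μM puromycin wells.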

| Structure (SMILES) | IC50 [1] | EC50 ([2]; Homo sapiens, SK-BR-3, 72 h) | EC50 ([2]; 72 hours) |
| --- | --- | --- | --- |
| COC[C@@H]1CN(C(=O)N[S@@]2(=O)=NC(=O)c3ccc4c(c3)N(C[C@@H]3CC[C@H]3[C@@H](OC)/C=C/C[C@H](C)C2)C[C@@]2(CCCc3cc(Cl)ccc32)CO4)CCO1 [Example 232] | 0.052 nM | 243 nM |  |
| CO[C@H]1/C=C/C[C@H](C)C[S@@](=O)(NC(=O)N2CCN(C(C)=O)CC2)=NC(=O)c2ccc3c(c2)N(C[C@@H]2CC[C@H]21)C[C@@]1(CCCc2cc(Cl)ccc21)CO3 [Example 247] | 0.042 nM | 85 nM |  |
| CO[C@H]1/C=C/CCC[S@@](=O)(NC(=O)COc2ccccc2)=NC(=O)c2ccc3c(c2)N(C[C@@H]2CC[C@H]21)C[C@@]1(CCCc2cc(Cl)ccc21)CO3 [Example 96] | 0.4 nM | 604 nM |  |
| CO[C@H]1/C=C/C[C@H](C)C[S@@](=O)(NC(=O)c2cc(CN3CCN(C(C)C)[C@H](C)C3)n(C)c2)=NC(=O)c2ccc3c(c2)N(C[C@@H]2CC[C@H]21)C[C@@]1(CCCc2cc(Cl)ccc21)CO3 [Example 284] | 0.061 nM | 54.7 nM |  |
| CO[C@H]1/C=C/C[C@H](C)C[S@@](=O)(NC(=O)N[C@@H]2C[C@@H]2C)=NC(=O)c2ccc3c(c2)N(C[C@@H]2CC[C@H]21)C[C@@]1(CCCc2cc(Cl)ccc21)CO3 [Example 162] | 0.18 nM | 136 nM |  |
| CO[C@H]1/C=C/C[C@H](C)C[S@@](=O)(NC(=O)N2CC(OC3CC3)C2)=NC(=O)c2ccc3c(c2)N(C[C@@H]2CC[C@H]21)C[C@@]1(CCCc2cc(Cl)ccc21)CO3 [Example 263] | 0.073 nM | 62.2 nM |  |
| CO[C@H]1/C=C/C[C@H](C)C[S@@](=O)(NC(=O)N2CC(OC(=O)N(C)C)C2)=NC(=O)c2ccc3c(c2)N(C[C@@H]2CC[C@H]21)C[C@@]1(CCCc2cc(Cl)ccc21)CO3 [Example 292] | 0.02 nM | 45.1 nM |  |
| COCC1(OC)CN(C(=O)N[S@@]2(=O)=NC(=O)c3ccc4c(c3)N(C[C@@H]3CC[C@H]3[C@@H](OC)/C=C/C[C@H](C)C2)C[C@@]2(CCCc3cc(Cl)ccc32)CO4)C1 [Example 274] | 0.043 nM | 82.6 nM |  |
| CO[C@H]1/C=C/C[C@H](C)C[S@@](=O)(NC(=O)N[C@H]2C[C@@H]2CN2CCOCC2)=NC(=O)c2ccc3c(c2)N(C[C@@H]2CC[C@H]21)C[C@@]1(CCCc2cc(Cl)ccc21)CO3 [Example 328] | 0.049 nM | 72.2 nM |  |
| CO[C@H]1/C=C/CCC[S@@](=O)(NC(=O)NCc2cnccn2)=NC(=O)c2ccc3c(c2)N(C[C@@H]2CC[C@H]21)C[C@@]1(CCCc2cc(Cl)ccc21)CO3 [Example 80] | 0.3 nM | 1060 nM |  |
| CO[C@H]1/C=C/C[C@H](C)C[S@@](=O)(NC(=O)c2cc(C(=O)N(C)C)n(C)c2)=NC(=O)c2ccc3c(c2)N(C[C@@H]2CC[C@H]21)C[C@@]1(CCCc2cc(Cl)ccc21)CO3 [Example 332] | 0.071 nM | 51.1 nM |  |
| CO[C@H]1/C=C/C[C@H](C)C[S@@](=O)(NC(=O)c2cc3n(n2)CCO3)=NC(=O)c2ccc3c(c2)N(C[C@@H]2CC[C@H]21)C[C@@]1(CCCc2cc(Cl)ccc21)CO3 [Example 219] | 0.099 nM | 146 nM |  |
| COC1CC2(C1)CN(C(=O)N[S@@]1(=O)=NC(=O)c3ccc4c(c3)N(C[C@@H]3CC[C@H]3[C@@H](OC)/C=C/C[C@H](C)C1)C[C@@]1(CCCc3cc(Cl)ccc31)CO4)C2 [Example 257] | 0.083 nM | 89.7 nM |  |
| CNCCO[C@H]1/C=C/[C@H](OC)[C@@H]2CC[C@H]2CN2C[C@@]3(CCCc4cc(Cl)ccc43)COc3ccc(cc32)C(=O)N=[S@](=O)(NC(=O)c2cn(C)nc2OC)C[C@H]1C [Example 386] | 0.048 nM | 83.8 nM |  |
| CO[C@H]1/C=C/C[C@H](C)C[S@@](=O)(NC(=O)C2CC(C)(OC)C2)=NC(=O)c2ccc3c(c2)N(C[C@@H]2CC[C@H]21)C[C@@]1(CCCc2cc(Cl)ccc21)CO3 (stereo partly drawn) [Example 169] | 0.048 nM | 61 nM |  |
| CO[C@H]1/C=C/C[C@H](C)C[S@@](=O)(NC(=O)N[C@H]2C[C@H](F)C2)=NC(=O)c2ccc3c(c2)N(C[C@@H]2CC[C@H]21)C[C@@]1(CCCc2cc(Cl)ccc21)CO3 [Example 357] | 0.113 nM | 206 nM |  |
| CO[C@H]1/C=C/CCC[S@@](=O)(NC(=O)Cc2cnccn2)=NC(=O)c2ccc3c(c2)N(C[C@@H]2CC[C@H]21)C[C@@]1(CCCc2cc(Cl)ccc21)CO3 [Example 20] | 0.5 nM | 2060 nM |  |

| Structure (SMILES) | IC50 [1] | EC50 ([2]; Homo sapiens, SK-BR-3, 72 h) | EC50 ([2]; 72 hours) |
| --- | --- | --- | --- |
| CO[C@H]1/C=C/C[C@H](C)C[S@@](=O)(NC(=O)[C@]23COCC2C3)=NC(=O)c2ccc3c(c2)N(C[C@@H]2CC[C@H]21)C[C@@]1(CCCc2cc(Cl)ccc21)CO3 (stereo partly drawn) [Example 447] | 0.132 nM | 161 nM |  |
| COc1nn(C)cc1C(=O)N[S@@]1(=O)=NC(=O)c2ccc3c(c2)N(C[C@@H]2CC[C@H]2[C@@H](OC)/C=C/[C@H](S(=O)(=O)c2ccc(C)cc2)[C@H](C)C1)C[C@@]1(CCCc2cc(Cl)ccc21)CO3 [Example 377] | 0.106 nM |  | 34 nM |
| CO[C@H]1/C=C/C[C@H](C)C[S@@](=O)(NC(=O)N2CC(OC(=O)N3CCOCC3)C2)=NC(=O)c2ccc3c(c2)N(C[C@@H]2CC[C@H]21)C[C@@]1(CCCc2cc(Cl)ccc21)CO3 [Example 387] | 0.102 nM | 162 nM |  |
| CO[C@H]1/C=C/CCC[S@@](=O)(NC(=O)COC2CCN(C(=O)N(C)C)CC2)=NC(=O)c2ccc3c(c2)N(C[C@@H]2CC[C@H]21)C[C@@]1(CCCc2cc(Cl)ccc21)CO3 [Example 417] | 0.092 nM | 403 nM |  |
| CO[C@H]1/C=C/C[C@H](C)C[S@@](=O)(NC(=O)c2cc(C)co2)=NC(=O)c2ccc3c(c2)N(C[C@@H]2CC[C@H]21)C[C@@]1(CCCc2cc(Cl)ccc21)CO3 [Example 203] | 0.073 nM | 76.1 nM |  |
| CO[C@H]1/C=C/C[C@H](C)C[S@@](=O)(NC(=O)c2cn(C)nc2OCCN2CCOCC2)=NC(=O)c2ccc3c(c2)N(C[C@@H]2CC[C@H]21)C[C@@]1(CCCc2cc(Cl)ccc21)CO3 [Example 319] | 0.038 nM | 19.9 nM |  |
| CO[C@H]1/C=C/CCC[S@@](=O)(NC(=O)CCc2ccon2)=NC(=O)c2ccc3c(c2)N(C[C@@H]2CC[C@H]21)C[C@@]1(CCCc2cc(Cl)ccc21)CO3 [Example 58] | 0.2 nM | 664 nM |  |
| CO[C@H]1/C=C/C[C@H](C)C[S@@](=O)(NC(=O)N[C@@H]2C[C@H]2CC(F)F)=NC(=O)c2ccc3c(c2)N(C[C@@H]2CC[C@H]21)C[C@@]1(CCCc2cc(Cl)ccc21)CO3 (single isomer, unassigned) [Example 281] | 0.154 nM |  | 184 nM |
| CO[C@H]1/C=C/C[C@H](C)C[S@@](=O)(NC(=O)COC2CC2)=NC(=O)c2ccc3c(c2)N(C[C@@H]2CC[C@H]21)C[C@@]1(CCCc2cc(Cl)ccc21)CO3 [Example 445] | 0.091 nM | 210 nM |  |
| COc1nn(C)cc1C(=O)N[S@@]1(=O)=NC(=O)c2ccc3c(c2)N(C[C@@H]2CC[C@H]2[C@@H](OC(=O)CN(C)C)/C=C/C[C@H](C)C1)C[C@@]1(CCCc2cc(Cl)ccc21)CO3 [Example 301] | 0.04 nM | 41.9 nM |  |
| CO[C@H]1/C=C/C[C@H](C)C[S@@](=O)(NC(=O)N2CC(OC(=O)N3CCCCC3)C2)=NC(=O)c2ccc3c(c2)N(C[C@@H]2CC[C@H]21)C[C@@]1(CCCc2cc(Cl)ccc21)CO3 [Example 385] | 0.128 nM | 222 nM |  |
| CO[C@H]1/C=C/CCC[S@@](=O)(NC(=O)CCc2ccnn2CC(F)(F)F)=NC(=O)c2ccc3c(c2)N(C[C@@H]2CC[C@H]21)C[C@@]1(CCCc2cc(Cl)ccc21)CO3 [Example 92] | 0.1 nM | 245 nM |  |
| COCC1CN(C(=O)N[S@@]2(=O)=NC(=O)c3ccc4c(c3)N(C[C@@H]3CC[C@H]3[C@@H](OC)/C=C/C[C@H](C)C2)C[C@@]2(CCCc3cc(Cl)ccc32)CO4)C1 [Example 346] | 0.031 nM | 30.9 nM |  |
| COc1nn(C)cc1C(=O)N[S@@]1(=O)=NC(=O)c2ccc3c(c2)N(C[C@@H]2CC[C@H]2[C@@H](OC)CC[C@H](OC)[C@H](C)C1)C[C@@]1(CCCc2cc(Cl)ccc21)CO3 [Example 299] | 0.039 nM | 59.7 nM |  |
| CO[C@H]1/C=C/C[C@H](C)C[S@@](=O)(NC(=O)Nc2ccnc(C)c2)=NC(=O)c2ccc3c(c2)N(C[C@@H]2CC[C@H]21)C[C@@]1(CCCc2cc(Cl)ccc21)CO3 [Example 443] | 0.187 nM | 162 nM |  |
| COC[C@H]1Cn2cc(C(=O)N[S@@]3(=O)=NC(=O)c4ccc5c(c4)N(C[C@@H]4CC[C@H]4[C@@H](O)/C=C/C[C@H](C)[C@H]3C)C[C@@]3(CCCc4cc(Cl)ccc43)CO5)cc2CO1 [Example 344] | 0.049 nM | 18.5 nM |  |
